Laboratory results as given in patent US6573218B1, “Fused-benzene derivatives useful as herbicides” (Ishihara Sangyo Kaisha, Ltd., priority 1998, dated 2003).

How the values were obtained:
Format in all cases: in vivo
[1] = test system: johnsongrass (Sorghum halepense, SORHA); assay: Pre-emerge greenhouse herbicide test; settings: 250 g ai/ha, 14 days after application, scale 0-100 (0 no damage, 100 complete death)
In short: (§1)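 Plants grown in sandy loam, sown one day before treatment (pre-emerge) or 8-21 days before, at 2-3 leaf stage (post-emerge). Acetone solutions track-sprayed at 187 l/ha, 15-1000 g ai/ha; post-emerge sprays include 0.25% v/v non-ionic surfactant, pre-emerge units watered after application. Phytotoxicity rated 0-100 at 14 days.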

[2] = test system: redroot pigweed (Amaranthus retroflexus, AMARE); assay: Pre-emerge greenhouse herbicide test; settings: 250 g ai/ha, 14 days after application, scale 0-100 (0 no damage, 100 complete death)
In short: as §1

[3] = test system: velvetleaf (Abutilon theophrasti, ABUTH); assay: Pre-emerge greenhouse herbicide test; settings: 250 g ai/ha, 14 days after application, scale 0-100 (0 no damage, 100 complete death)
In short: as §1

[4] = test system: lambsquarters (Chenopodium album, CHEAL); assay: Pre-emerge greenhouse herbicide test; settings: 250 g ai/ha, 14 days after application, scale 0-100 (0 no damage, 100 complete death)
In short: as §1

[5] = test system: sicklepod (Cassia obtusifolia, CASOB); assay: Pre-emerge greenhouse herbicide test; settings: 250 g ai/ha, 14 days after application, scale 0-100 (0 no damage, 100 complete death)
In short: as §1

[6] = test system: ivyleaf morningglory (Ipomoea hederacea, IPOHE); assay: Pre-emerge greenhouse herbicide test; settings: 250 g ai/ha, 14 days after application, scale 0-100 (0 no damage, 100 complete death)
In short: as §1

[7] = test system: green foxtail (Setaria viridis, SETVI); assay: Pre-emerge greenhouse herbicide test; settings: 250 g ai/ha, 14 days after application, scale 0-100 (0 no damage, 100 complete death)
In short: as §1

[8] = test system: barnyardgrass (Echinochloa crus-galli, ECHCG); assay: Pre-emerge greenhouse herbicide test; settings: 250 g ai/ha, 14 days after application, scale 0-100 (0 no damage, 100 complete death)
In short: as §1

[9] = test system: large crabgrass (Digitaria sanguinalis, DIGSA); assay: Pre-emerge greenhouse herbicide test; settings: 250 g ai/ha, 14 days after application, scale 0-100 (0 no damage, 100 complete death)
In short: as §1

[10] = test system: field corn (Zea mays L., var. Dekalb 527, CORN); assay: Pre-emerge greenhouse crop damage test
In short: as §1

[11] = test system: upland rice (Ory0a sp., var.Tebonnet, RICE); assay: Pre-emerge greenhouse crop damage test; settings: in vivo
In short: as §1

[12] = test system: soybean (Glycine max L., var. Pella 86, SOY); assay: Pre-emerge greenhouse crop damage test
In short: as §1

[13] = test system: field corn (Zea mays L., var. Dekalb 527, CORN); assay: Post-emerge greenhouse crop damage test
In short: as §1

[14] = test system: upland rice (Ory0a sp., var.Tebonnet, RICE); assay: Post-emerge greenhouse crop damage test
In short: as §1

[15] = test system: soybean (Glycine max L., var. Pella 86, SOY); assay: Post-emerge greenhouse crop damage test
In short: as §1

[16] = test system: johnsongrass (Sorghum halepense, SORHA); assay: Post-emerge greenhouse herbicide test; settings: 250 g ai/ha, 14 days after application
In short: as §1

[17] = test system: redroot pigweed (Amaranthus retroflexus, AMARE); assay: Post-emerge greenhouse herbicide test; settings: 250 g ai/ha, 14 days after application
In short: as §1

[18] = test system: velvetleaf (Abutilon theophrasti, ABUTH); assay: Post-emerge greenhouse herbicide test; settings: 250 g ai/ha, 14 days after application
In short: as §1

[19] = test system: common ragweed (Ambrosia artemisiifolia L., AMBEL); assay: Post-emerge greenhouse herbicide test; settings: 250 g ai/ha, 14 days after application
In short: as §1

[20] = test system: lambsquarters (Chenopodium album, CHEAL); assay: Post-emerge greenhouse herbicide test; settings: 250 g ai/ha, 14 days after application
In short: as §1

[21] = test system: sicklepod (Cassia obtusifolia, CASOB); assay: Post-emerge greenhouse herbicide test; settings: 250 g ai/ha, 14 days after application
In short: as §1

[22] = test system: ivyleaf morningglory (Ipomoea hederacea, IPOHE); assay: Post-emerge greenhouse herbicide test; settings: 250 g ai/ha, 14 days after application
In short: as §1

[23] = test system: green foxtail (Setaria viridis, SETVI); assay: Post-emerge greenhouse herbicide test; settings: 250 g ai/ha, 14 days after application
In short: as §1

[24] = test system: barnyardgrass (Echinochloa crus-galli, ECHCG); assay: Post-emerge greenhouse herbicide test; settings: 250 g ai/ha, 14 days after application
In short: as §1

[25] = test system: large crabgrass (Digitaria sanguinalis, DIGSA); assay: Post-emerge greenhouse herbicide test; settings: 250 g ai/ha, 14 days after application
In short: as §1

[26] = pre-emerge, 250 g ai/ha, 14 days after application, scale 0-100 (0 no damage, 100 complete death)
[27] = 250 g ai/ha, post-emerge, 14 days after application
[28] = var. Dekalb 527, field corn (Zea mays L.), in vivo, 14 days
[29] = var. Pella 86, soybean (Glycine max L.), in vivo, 14 days

| Structure (SMILES) | Pre-emerge Herbicidal Activity SORHA (phytotoxicity rating) [1] | Pre-emerge Herbicidal Activity AMARE (phytotoxicity rating) [2] | Pre-emerge Herbicidal Activity ABUTH (phytotoxicity rating) [3] | Pre-emerge Herbicidal Activity CHEAL (phytotoxicity rating) [4] | Pre-emerge Herbicidal Activity CASOB (phytotoxicity rating) [5] | Pre-emerge Herbicidal Activity IPOHE (phytotoxicity rating) [6] | Pre-emerge Herbicidal Activity SETVI (phytotoxicity rating) [7] | Pre-emerge Herbicidal Activity ECHCG (phytotoxicity rating) [8] | Pre-emerge Herbicidal Activity DIGSA (phytotoxicity rating) [9] | Post-emerge Herbicidal Activity SORHA (phytotoxicity rating 0-100) [16] | Post-emerge Herbicidal Activity AMARE (phytotoxicity rating 0-100) [17] | Post-emerge Herbicidal Activity ABUTH (phytotoxicity rating 0-100) [18] | Post-emerge Herbicidal Activity CHEAL (phytotoxicity rating 0-100) [20] | Post-emerge Herbicidal Activity CASOB (phytotoxicity rating 0-100) [21] | Post-emerge Herbicidal Activity IPOHE (phytotoxicity rating 0-100) [22] | Post-emerge Herbicidal Activity SETVI (phytotoxicity rating 0-100) [23] | Post-emerge Herbicidal Activity ECHCG (phytotoxicity rating 0-100) [24] | Post-emerge Herbicidal Activity DIGSA (phytotoxicity rating 0-100) [25] | also measured |
| --- | --- | --- | --- | --- | --- | --- | --- | --- | --- | --- | --- | --- | --- | --- | --- | --- | --- | --- | --- |
| Cc1nc2c(-n3ncc(C(F)(F)F)cc3=O)c(F)cc(Cl)c2o1 [Compound 12-1] | 100 | 100 | 100 | 100 | 90 | 99 | 100 | 100 | 100 | 0 | 70 | 95 | 0 | 10 | 40 | 0 | 50 | 0 | Pre-emerge Herbicidal Activity CORN (crop damage rating) [10, 26]: 100; Pre-emerge Herbicidal Activity RICE (crop damage rating) [11]: 90; Pre-emerge Herbicidal Activity SOY (crop damage rating) [12, 26]: 70; Post-emerge crop damage CORN (phytotoxicity rating 0-100) [13, 27]: 0; Post-emerge crop damage RICE (phytotoxicity rating 0-100) [14, 27]: 10; Post-emerge crop damage SOY (phytotoxicity rating 0-100) [15, 27]: 50; Post-emerge Herbicidal Activity AMBEL (phytotoxicity rating 0-100) [19]: 20 |
| CCc1nc2c(-n3c(=O)n4n(c3=S)CCC=C4)c(F)cc(Cl)c2o1 [Compound 8-1, 8-(7-Chloro-2-ethyl-5-fluorobenzoxazol-4-yl)-1,6,8-triazabicyclo[4,3,0]2-nonene-9-one-7-thione] | 100 | 100 | 100 | 100 | 90 | 60 | 100 | 90 | 100 | 99 | 100 | 100 | 99 | 100 | 100 | 100 | 90 | 70 | Pre-emerge Herbicidal Activity CORN (crop damage rating) [10, 28]: 50; Pre-emerge Herbicidal Activity RICE (crop damage rating) ([11]; var. Tebonnet, upland rice (Ory0a sp.), 14 days): 20; Pre-emerge Herbicidal Activity SOY (crop damage rating) [12, 29]: 60; Post-emerge crop damage CORN (phytotoxicity rating 0-100) [13, 28]: 80; Post-emerge crop damage RICE (phytotoxicity rating 0-100) ([14]; var. Tebonnet, upland rice (Ory0a sp.), in vivo, 14 days): 80; Post-emerge crop damage SOY (phytotoxicity rating 0-100) [15, 29]: 100 |
